{"source": "BindingDB's records for PubMed 7910212", "about": "(Yamanouchi Pharmaceutical, 1994)", "key": {"[1]": {"target": "T1, Gastrin/cholecystokinin type B receptor (Rattus norvegicus, UniProt P30553)", "T1 sequence (P30553 whole entry)": "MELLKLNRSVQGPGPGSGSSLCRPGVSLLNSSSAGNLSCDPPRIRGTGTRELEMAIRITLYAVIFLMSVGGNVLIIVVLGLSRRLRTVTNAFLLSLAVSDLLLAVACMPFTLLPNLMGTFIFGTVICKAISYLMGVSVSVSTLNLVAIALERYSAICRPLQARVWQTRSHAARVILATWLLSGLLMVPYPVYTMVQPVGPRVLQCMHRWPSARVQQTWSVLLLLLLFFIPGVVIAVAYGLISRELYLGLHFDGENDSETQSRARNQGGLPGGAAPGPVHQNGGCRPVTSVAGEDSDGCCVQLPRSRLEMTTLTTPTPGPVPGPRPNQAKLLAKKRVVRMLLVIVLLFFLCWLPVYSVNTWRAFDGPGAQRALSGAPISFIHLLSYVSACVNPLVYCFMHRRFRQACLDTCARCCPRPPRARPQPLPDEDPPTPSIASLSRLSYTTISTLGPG"}, "[2]": {"target": "Muscarinic acetylcholine receptor M3 (Rattus norvegicus, UniProt P08483)", "sequence (P08483 whole entry)": "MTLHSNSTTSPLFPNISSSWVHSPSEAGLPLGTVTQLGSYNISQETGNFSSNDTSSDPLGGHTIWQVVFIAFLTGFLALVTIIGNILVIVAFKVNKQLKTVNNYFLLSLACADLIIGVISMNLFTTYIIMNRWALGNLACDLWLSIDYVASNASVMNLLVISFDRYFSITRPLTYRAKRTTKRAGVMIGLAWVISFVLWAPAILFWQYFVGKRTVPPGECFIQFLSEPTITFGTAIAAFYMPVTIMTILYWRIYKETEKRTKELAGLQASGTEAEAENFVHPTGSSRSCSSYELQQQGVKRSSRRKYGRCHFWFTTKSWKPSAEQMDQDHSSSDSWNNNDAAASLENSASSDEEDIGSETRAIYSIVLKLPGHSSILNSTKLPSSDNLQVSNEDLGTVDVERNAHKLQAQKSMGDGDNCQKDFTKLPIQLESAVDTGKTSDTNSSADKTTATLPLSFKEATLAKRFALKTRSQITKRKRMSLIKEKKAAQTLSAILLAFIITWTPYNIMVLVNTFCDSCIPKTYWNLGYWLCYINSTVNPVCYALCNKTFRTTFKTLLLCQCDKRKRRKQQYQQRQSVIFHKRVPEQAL"}, "[3]": {"target": "T2, 5-hydroxytryptamine receptor 1A (Rattus norvegicus, UniProt P19327)", "T2 sequence (P19327 whole entry)": "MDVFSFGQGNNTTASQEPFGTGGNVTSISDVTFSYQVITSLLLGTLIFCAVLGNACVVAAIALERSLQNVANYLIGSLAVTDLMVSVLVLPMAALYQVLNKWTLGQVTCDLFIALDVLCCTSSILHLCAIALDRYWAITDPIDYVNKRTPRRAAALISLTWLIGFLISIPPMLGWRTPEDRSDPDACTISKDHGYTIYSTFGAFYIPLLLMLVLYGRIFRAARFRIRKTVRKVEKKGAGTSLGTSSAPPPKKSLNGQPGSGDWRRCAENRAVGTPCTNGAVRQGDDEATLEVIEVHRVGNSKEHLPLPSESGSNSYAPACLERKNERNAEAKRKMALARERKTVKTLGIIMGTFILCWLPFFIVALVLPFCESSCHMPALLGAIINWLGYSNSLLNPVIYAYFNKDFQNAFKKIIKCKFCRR"}, "[4]": {"target": "T3, Muscarinic acetylcholine receptor M2 (Rattus norvegicus, UniProt P10980)", "T3 sequence (P10980 whole entry)": "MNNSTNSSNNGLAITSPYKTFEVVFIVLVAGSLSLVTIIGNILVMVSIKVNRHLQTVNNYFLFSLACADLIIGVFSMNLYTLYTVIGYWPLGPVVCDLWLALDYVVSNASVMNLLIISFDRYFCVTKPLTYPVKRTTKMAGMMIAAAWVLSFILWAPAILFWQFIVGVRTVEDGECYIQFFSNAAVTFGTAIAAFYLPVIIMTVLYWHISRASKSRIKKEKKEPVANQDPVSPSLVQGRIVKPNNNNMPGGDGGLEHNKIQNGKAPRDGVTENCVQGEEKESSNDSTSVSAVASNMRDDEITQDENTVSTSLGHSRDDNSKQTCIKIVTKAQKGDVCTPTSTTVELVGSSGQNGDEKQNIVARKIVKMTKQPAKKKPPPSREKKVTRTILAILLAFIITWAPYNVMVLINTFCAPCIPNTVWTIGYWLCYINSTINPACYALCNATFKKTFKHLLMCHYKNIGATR"}, "[5]": {"target": "Sigma non-opioid intracellular receptor 1 (Rattus norvegicus, UniProt Q9R0C9)", "sequence (Q9R0C9 whole entry)": "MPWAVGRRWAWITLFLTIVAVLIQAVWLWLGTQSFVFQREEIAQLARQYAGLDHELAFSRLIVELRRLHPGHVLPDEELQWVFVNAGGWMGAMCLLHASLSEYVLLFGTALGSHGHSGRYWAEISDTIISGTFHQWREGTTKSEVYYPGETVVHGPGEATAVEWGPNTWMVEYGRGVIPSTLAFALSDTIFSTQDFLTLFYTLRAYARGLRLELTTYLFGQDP"}, "[6]": {"target": "D(1A) dopamine receptor (Rattus norvegicus, UniProt P18901)", "sequence (P18901 whole entry)": "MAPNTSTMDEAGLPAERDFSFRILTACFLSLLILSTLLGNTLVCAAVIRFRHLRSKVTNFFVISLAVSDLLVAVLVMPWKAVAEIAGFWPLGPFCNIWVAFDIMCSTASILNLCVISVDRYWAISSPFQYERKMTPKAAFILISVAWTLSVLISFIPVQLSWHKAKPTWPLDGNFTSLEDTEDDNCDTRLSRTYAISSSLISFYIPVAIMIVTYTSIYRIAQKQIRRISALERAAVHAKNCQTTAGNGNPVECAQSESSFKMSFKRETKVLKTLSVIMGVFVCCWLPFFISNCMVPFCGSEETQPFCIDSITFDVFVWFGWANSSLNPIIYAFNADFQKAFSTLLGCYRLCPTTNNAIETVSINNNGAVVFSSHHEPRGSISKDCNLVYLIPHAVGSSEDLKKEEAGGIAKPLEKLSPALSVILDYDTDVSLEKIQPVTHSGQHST"}, "[7]": {"target": "Histamine H1 receptor (Cavia porcellus, UniProt P31389)", "sequence (P31389 whole entry)": "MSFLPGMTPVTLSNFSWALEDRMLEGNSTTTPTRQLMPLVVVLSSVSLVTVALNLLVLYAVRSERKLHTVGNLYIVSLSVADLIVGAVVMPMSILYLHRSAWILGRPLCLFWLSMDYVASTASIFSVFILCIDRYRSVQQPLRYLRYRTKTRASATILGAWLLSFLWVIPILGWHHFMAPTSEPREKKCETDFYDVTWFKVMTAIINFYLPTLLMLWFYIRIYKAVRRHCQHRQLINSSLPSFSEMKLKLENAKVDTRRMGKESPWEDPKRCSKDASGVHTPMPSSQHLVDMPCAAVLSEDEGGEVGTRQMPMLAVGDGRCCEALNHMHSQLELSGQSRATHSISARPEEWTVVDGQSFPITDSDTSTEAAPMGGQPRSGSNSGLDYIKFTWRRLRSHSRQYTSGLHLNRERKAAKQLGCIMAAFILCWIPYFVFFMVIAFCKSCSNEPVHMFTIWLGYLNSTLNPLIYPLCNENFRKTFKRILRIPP"}, "[8]": {"target": "Beta-2 adrenergic receptor (Rattus norvegicus, UniProt P10608)", "sequence (P10608 whole entry)": "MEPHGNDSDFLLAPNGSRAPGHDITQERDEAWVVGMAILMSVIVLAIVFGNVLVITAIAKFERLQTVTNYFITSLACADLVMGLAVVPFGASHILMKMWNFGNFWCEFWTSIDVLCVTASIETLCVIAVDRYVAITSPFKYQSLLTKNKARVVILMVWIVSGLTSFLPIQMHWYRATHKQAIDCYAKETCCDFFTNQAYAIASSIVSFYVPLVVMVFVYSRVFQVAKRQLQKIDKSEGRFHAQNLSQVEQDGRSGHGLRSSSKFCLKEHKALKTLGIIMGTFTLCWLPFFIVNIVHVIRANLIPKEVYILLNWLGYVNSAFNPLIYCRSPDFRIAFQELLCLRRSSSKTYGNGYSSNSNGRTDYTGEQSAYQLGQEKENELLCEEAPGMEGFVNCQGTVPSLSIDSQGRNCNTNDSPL"}, "[9]": {"target": "T4, Alpha-1A adrenergic receptor (Rattus norvegicus, UniProt P43140)", "T4 sequence (P43140 whole entry)": "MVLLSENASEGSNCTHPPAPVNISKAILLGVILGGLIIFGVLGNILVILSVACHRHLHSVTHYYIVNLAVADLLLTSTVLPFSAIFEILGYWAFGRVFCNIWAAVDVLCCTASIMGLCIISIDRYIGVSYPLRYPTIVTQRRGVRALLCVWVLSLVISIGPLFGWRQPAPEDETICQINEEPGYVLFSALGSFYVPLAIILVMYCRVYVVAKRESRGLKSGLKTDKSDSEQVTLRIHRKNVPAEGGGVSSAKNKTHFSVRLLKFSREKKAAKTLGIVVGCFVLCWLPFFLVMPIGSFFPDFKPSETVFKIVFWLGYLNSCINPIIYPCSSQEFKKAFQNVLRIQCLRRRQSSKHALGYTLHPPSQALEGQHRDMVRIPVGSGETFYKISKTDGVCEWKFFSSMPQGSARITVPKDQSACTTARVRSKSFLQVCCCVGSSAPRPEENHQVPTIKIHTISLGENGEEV"}, "[10]": {"target": "Glutamate receptor 3 (Rattus norvegicus, UniProt P19492)", "sequence (P19492 whole entry)": "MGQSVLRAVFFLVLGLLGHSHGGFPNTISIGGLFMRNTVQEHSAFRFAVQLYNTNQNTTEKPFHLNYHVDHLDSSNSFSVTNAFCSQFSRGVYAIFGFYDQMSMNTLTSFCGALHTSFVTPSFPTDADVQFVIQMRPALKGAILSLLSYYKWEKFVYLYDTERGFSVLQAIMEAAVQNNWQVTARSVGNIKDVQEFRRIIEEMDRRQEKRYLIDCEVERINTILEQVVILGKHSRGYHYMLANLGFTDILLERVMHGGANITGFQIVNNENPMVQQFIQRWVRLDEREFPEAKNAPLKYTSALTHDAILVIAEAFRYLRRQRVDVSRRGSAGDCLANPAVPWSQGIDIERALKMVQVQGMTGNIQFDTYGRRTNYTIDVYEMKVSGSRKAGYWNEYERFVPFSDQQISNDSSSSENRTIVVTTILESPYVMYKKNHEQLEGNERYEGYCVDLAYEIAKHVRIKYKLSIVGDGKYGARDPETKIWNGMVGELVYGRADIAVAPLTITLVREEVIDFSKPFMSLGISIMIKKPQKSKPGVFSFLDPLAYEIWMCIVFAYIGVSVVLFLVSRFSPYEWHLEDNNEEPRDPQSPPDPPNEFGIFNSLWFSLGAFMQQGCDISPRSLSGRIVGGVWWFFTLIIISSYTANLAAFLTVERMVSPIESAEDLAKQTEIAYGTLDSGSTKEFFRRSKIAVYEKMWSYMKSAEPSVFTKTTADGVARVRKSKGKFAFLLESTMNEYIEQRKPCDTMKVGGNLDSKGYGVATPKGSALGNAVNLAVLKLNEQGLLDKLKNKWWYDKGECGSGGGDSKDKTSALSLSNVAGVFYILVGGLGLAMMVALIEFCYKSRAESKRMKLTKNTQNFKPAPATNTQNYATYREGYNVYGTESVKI"}, "[11]": {"target": "Gamma-aminobutyric acid receptor subunit alpha-1 (Rattus norvegicus, UniProt P62813)", "sequence (P62813 whole entry)": "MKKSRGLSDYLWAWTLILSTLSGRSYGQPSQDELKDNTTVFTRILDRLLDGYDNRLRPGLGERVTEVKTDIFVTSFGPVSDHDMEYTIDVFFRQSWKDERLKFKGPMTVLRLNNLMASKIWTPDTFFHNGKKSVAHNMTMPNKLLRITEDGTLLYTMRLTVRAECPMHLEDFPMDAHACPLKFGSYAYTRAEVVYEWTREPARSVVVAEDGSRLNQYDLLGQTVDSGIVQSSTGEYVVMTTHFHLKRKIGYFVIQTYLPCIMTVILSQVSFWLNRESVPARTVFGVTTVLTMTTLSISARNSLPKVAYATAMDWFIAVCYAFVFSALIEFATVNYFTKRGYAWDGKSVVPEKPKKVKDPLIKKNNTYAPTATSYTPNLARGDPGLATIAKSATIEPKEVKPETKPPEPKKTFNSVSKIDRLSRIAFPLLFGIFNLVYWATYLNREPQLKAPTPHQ"}, "[12]": {"target": "5-hydroxytryptamine receptor 2A (Rattus norvegicus, UniProt P14842)", "sequence (P14842 whole entry)": "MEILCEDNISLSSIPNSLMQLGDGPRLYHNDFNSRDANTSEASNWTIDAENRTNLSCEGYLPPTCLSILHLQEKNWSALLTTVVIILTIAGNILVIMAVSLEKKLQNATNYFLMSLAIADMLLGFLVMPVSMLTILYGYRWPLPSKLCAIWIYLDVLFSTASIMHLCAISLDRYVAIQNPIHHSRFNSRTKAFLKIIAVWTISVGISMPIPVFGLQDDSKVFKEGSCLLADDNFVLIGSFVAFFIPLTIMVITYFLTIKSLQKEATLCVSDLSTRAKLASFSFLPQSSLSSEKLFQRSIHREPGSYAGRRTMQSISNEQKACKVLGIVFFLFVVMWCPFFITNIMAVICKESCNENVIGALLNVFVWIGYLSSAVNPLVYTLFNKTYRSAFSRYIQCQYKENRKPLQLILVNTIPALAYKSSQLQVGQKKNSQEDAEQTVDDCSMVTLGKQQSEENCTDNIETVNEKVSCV"}, "[13]": {"target": "T5, Alpha-2C adrenergic receptor (Rattus norvegicus, UniProt P22086)", "T5 sequence (P22086 whole entry)": "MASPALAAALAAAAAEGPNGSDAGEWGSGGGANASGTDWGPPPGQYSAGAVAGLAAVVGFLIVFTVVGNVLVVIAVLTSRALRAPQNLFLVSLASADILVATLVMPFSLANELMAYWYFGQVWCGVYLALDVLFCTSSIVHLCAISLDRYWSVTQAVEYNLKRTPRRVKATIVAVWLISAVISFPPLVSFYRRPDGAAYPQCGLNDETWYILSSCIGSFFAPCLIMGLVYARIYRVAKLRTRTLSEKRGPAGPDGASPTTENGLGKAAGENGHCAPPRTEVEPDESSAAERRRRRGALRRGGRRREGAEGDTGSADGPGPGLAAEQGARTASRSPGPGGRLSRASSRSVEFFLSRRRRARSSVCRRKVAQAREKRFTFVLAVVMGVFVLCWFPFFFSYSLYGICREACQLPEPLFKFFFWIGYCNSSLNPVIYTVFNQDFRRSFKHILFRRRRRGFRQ"}, "[14]": {"target": "Mu-type opioid receptor (Rattus norvegicus, UniProt P33535)", "sequence (P33535 whole entry)": "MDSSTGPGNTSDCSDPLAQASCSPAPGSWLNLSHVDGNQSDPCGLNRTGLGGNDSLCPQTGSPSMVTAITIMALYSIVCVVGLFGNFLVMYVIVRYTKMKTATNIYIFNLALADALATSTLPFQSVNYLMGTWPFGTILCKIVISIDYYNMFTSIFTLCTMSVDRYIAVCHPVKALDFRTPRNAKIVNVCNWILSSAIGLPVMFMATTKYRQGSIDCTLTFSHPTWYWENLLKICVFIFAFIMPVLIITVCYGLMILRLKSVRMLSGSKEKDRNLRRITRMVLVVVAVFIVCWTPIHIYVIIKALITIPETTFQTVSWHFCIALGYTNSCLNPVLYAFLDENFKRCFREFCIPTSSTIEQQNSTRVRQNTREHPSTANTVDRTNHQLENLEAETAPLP"}, "[15]": {"target": "T6, Muscarinic acetylcholine receptor M1 (Rattus norvegicus, UniProt P08482)", "T6 sequence (P08482 whole entry)": "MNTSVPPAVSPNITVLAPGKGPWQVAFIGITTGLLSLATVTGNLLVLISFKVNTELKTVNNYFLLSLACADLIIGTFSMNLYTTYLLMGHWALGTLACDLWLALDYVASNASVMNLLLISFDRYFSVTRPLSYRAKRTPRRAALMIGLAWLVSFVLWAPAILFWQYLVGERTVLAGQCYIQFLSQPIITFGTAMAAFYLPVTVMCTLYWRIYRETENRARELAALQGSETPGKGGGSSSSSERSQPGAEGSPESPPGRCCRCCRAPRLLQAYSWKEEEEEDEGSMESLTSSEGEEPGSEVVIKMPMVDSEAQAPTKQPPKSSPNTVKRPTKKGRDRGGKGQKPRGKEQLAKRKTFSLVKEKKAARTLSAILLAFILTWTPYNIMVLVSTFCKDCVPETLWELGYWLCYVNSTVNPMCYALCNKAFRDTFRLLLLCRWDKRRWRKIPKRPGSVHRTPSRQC"}, "[16]": {"target": "D(2) dopamine receptor (Rattus norvegicus, UniProt P61169)", "sequence (P61169 whole entry)": "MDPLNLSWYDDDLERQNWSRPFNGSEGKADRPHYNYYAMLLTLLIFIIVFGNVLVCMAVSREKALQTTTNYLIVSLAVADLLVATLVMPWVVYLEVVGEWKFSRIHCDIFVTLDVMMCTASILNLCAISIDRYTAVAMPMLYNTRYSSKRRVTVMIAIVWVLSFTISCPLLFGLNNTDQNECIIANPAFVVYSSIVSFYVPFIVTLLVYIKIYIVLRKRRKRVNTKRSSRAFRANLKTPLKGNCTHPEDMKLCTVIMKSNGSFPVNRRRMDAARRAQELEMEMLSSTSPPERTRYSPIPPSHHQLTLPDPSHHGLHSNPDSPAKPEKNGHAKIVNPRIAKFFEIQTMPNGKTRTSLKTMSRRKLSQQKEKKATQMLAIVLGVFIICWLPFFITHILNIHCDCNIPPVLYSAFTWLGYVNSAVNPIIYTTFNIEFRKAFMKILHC"}, "[17]": {"target": "Kappa-type opioid receptor (Rattus norvegicus, UniProt P34975)"}}, "note": "Where “and” joins values, the source holds several entries; their conditions need not be identical. Equal values may be shown once."}
{"smiles": "Cc1cccc(NC(=O)N[C@H]2N=C(c3ccccc3)c3ccccc3N(CC(=O)c3ccccc3C)C2=O)c1", "note": "[YM022 S-isomer]", "values": [{"measurement": "Ki", "setting": "[1]", "value": "0.14 µM and 0.49 µM"}]}
{"smiles": "Cc1cccc(NC(=O)N[C@@H]2N=C(c3ccccc3)c3ccccc3N(CC(=O)c3ccccc3C)C2=O)c1", "values": [{"measurement": "Ki", "setting": "[2]", "value": "> 10", "unit": "µM"}, {"measurement": "Ki", "setting": "[3]", "value": "> 10", "unit": "µM"}, {"measurement": "Ki", "setting": "[4]", "value": "> 10", "unit": "µM"}, {"measurement": "Ki", "setting": "[5]", "value": "> 10", "unit": "µM"}, {"measurement": "Ki", "setting": "[6]", "value": "> 10", "unit": "µM"}, {"measurement": "Ki", "setting": "[7]", "value": "> 10", "unit": "µM"}, {"measurement": "Ki", "setting": "[8]", "value": "> 10", "unit": "µM"}, {"measurement": "Ki", "setting": "[9]", "value": "> 10", "unit": "µM"}, {"measurement": "Ki", "setting": "[10]", "value": "> 10", "unit": "µM"}, {"measurement": "Ki", "setting": "[11]", "value": "> 10", "unit": "µM"}, {"measurement": "Ki", "setting": "[12]", "value": "> 10", "unit": "µM"}, {"measurement": "Ki", "setting": "[13]", "value": "> 10", "unit": "µM"}, {"measurement": "Ki", "setting": "[14]", "value": "> 10", "unit": "µM"}, {"measurement": "Ki", "setting": "[15]", "value": "> 10", "unit": "µM"}, {"measurement": "Ki", "setting": "[16]", "value": "> 10", "unit": "µM"}, {"measurement": "Ki", "setting": "[17]", "value": "> 10", "unit": "µM"}]}
